Results on 42 compounds are retold here after patent publication US9615576B2, “Pesticidal compositions and processes related thereto” (Dow AgroSciences LLC, priority 2011, dated 2017).

Test [1] concerns Beet Armyworm (BAW) (Spodoptera exigua). Put plainly: Bioassays on Beet Armyworm (BAW), 128-well diet tray assay. The format is in vivo. As to conditions: 168 h, 50 μg/cm^2 test compound on artificial diet, second instar larvae, 25° C., five to seven days, average of eight wells, read-out: BAW Rating (% mortality). As to the method:
(§1) Certain molecules disclosed in this document were tested against BAW and CEW using procedures described in the following examples. In the reporting of the results, the “BAW & CEW Rating Table” was used (See Table Section).
Bioassays on BAW (Spodoptera exigua)
Bioassays on BAW were conducted using a 128-well diet tray assay. one to five second instar BAW larvae were placed in each well (3 mL) of the diet tray that had been previously filled with 1 mL of artificial diet to which 50 μg/cm^2 of the test compound (dissolved in 50 μL of 90:10 acetone-water mixture) had been applied (to each of eight wells) and then allowed to dry. Trays were covered with a clear self-adhesive cover, and held at 25° C., 14:10 light-dark for five to seven days. Percent mortality was recorded for the larvae in each well; activity in the eight wells was then averaged. The results are indicated in the table entitled “Table 3: Assay Results” (See Table Section).

Test [2] deals with Corn Earworm (CEW) (Helicoverpa zea). Put plainly: Bioassays on Corn Earworm (CEW), 128-well diet tray assay. It is filed as in vivo. Particulars: 168 h, 50 μg/cm^2 test compound on artificial diet, second instar larvae, 25° C., five to seven days, average of eight wells, read-out: CEW Rating (% mortality). The procedure:
as §1
Bioassays on CEW (Helicoverpa zea)
Bioassays on CEW were conducted using a 128-well diet tray assay. one to five second instar CEW larvae were placed in each well (3 mL) of the diet tray that had been previously filled with 1 mL of artificial diet to which 50 μg/cm^2 of the test compound (dissolved in 50 μL of 90:10 acetone-water mixture) had been applied (to each of eight wells) and then allowed to dry. Trays were covered with a clear self-adhesive cover, and held at 25° C., 14:10 light-dark for five to seven days. Percent mortality was recorded for the larvae in each well; activity in the eight wells was then averaged. The results are indicated in the table entitled “Table 3: Assay Results” (See Table Section).

Each structure is given as a SMILES string.

Regarding `N#Cc1cc(/C=C/C(c2cc(Cl)cc(Cl)c2)C(F)(F)F)ccc1-n1cncn1` (stereo not drawn) [DC29], the mortality at 50 µg/cm2 in test [1] and in test [2] was 50 to 100% in each case.
For the compound `N#Cc1cc(/C=C/C(c2cc(Cl)c(F)c(Cl)c2)C(F)(F)F)ccc1-n1cncn1` (stereo not drawn) [DC35], the mortality at 50 µg/cm2 in test [1] and in test [2] was 50 to 100% each time.
On to `CONC(=O)CNC(=O)c1ccc(/C=C/C(c2cc(Cl)c(Cl)c(Cl)c2)C(F)(F)F)cc1Br` (stereo not drawn) [AC110], for which the mortality at 50 µg/cm2 in test [1] and in test [2] was 50 to 100% throughout.
As to `O=C(CC(F)(F)F)NCc1ccc(/C=C/C(c2cc(Cl)c(Cl)c(Cl)c2)C(F)(F)F)cc1Br` (stereo not drawn) [CC25], the mortality at 50 µg/cm2 in test [1] and in test [2] was 50 to 100% each time.
Regarding `Cc1cc(/C=C/C(c2cc(Cl)cc(Cl)c2)C(F)(F)F)ccc1C(=O)NC1CS(=O)(=O)C1` (stereo not drawn) [AC13], the mortality at 50 µg/cm2 in test [1] and in test [2] was 50 to 100% throughout.
`CC(=O)Nc1ncn(-c2ccc(/C=C/C(c3cc(Cl)cc(Cl)c3)C(F)(F)F)cc2C#N)n1` (stereo not drawn) [DC39]: the mortality at 50 µg/cm2 in test [1] and in test [2] was 50 to 100% in each case.
`Cc1ncn(-c2ccc(/C=C/C(c3cc(Cl)cc(Cl)c3)C(F)(F)F)cc2)n1` (stereo not drawn) [DC21]: the mortality at 50 µg/cm2 in test [1] and in test [2] was 0% each time.
In the case of `O=C(CNC(=O)c1ccc(/C=C/C(c2cc(Cl)cc(Cl)c2)C(F)(F)F)cc1Cl)NCC(F)(F)F` (stereo not drawn) [AC57], the mortality at 50 µg/cm2 in test [1] and in test [2] was 50 to 100% each time.
For `N#Cc1cc(/C=C\C(c2cc(Cl)c(F)c(Cl)c2)C(F)(F)F)ccc1-n1cncn1` (stereo not drawn) [DC46], the mortality at 50 µg/cm2 in test [1] and in test [2] was 50 to 100% each time.
Take `O=C(CC(F)(F)F)NCc1ccc(/C=C\C(c2cc(Cl)c(Cl)c(Cl)c2)C(F)(F)F)cc1` (stereo not drawn) [CC54, (Z)-3,3,3-trifluoro-N-(4-(4,4,4-trifluoro-3-(3,4,5-trichlorophenyl)but-1-en-1-yl)benzyl)propanamide]: the mortality at 50 µg/cm2 in test [1] and in test [2] was 50 to 100% each time.
Take `CCc1cc(/C=C/C(c2cc(Cl)c(F)c(Cl)c2)C(F)(F)F)ccc1C(=O)NCC(=O)NCC(F)(F)F` (stereo not drawn) [AC80]: the mortality at 50 µg/cm2 in test [1] and in test [2] was 50 to 100% in each case.
As to `Cc1cc(/C=C/C(c2cc(Cl)cc(Cl)c2)C(F)(F)F)ccc1C(=O)NC(C)c1ccc(Cl)nc1` (stereo not drawn) [AC44], the mortality at 50 µg/cm2 in test [1] and in test [2] was 50 to 100% in each case.
Regarding `O=C(NCc1ccc(Cl)nc1)c1ccc(/C=C/C(c2cc(Cl)cc(Cl)c2)C(F)(F)F)cc1F` (stereo not drawn) [AC49], the mortality at 50 µg/cm2 in test [1] and in test [2] was 50 to 100% in each case.
Turning to `CCNC(=O)NCc1ccc(/C=C/C(c2cc(Cl)c(Cl)c(Cl)c2)C(F)(F)F)cc1Br` (stereo not drawn) [CC33], the mortality at 50 µg/cm2 in test [1] and in test [2] was 50 to 100% in each case.
For the compound `N#Cc1cc(/C=C/C(c2cc(Cl)cc(C(F)(F)F)c2)C(F)(F)F)ccc1-n1cncn1` (stereo not drawn) [DC33], the mortality at 50 µg/cm2 in test [1] and in test [2] was 50 to 100% each time.
Regarding `CCc1cc(/C=C/C(c2cc(Cl)c(F)c(Cl)c2)C(F)(F)F)ccc1C(=O)NC1CS(=O)(=O)C1` (stereo not drawn) [AC86], the mortality at 50 µg/cm2 in test [1] and in test [2] was 50 to 100% each time.
For `O=C(NCc1ccc(/C=C/C(c2cc(Cl)c(Cl)c(Cl)c2)C(F)(F)F)cc1)C1CC1` (stereo not drawn) [CC5], the mortality at 50 µg/cm2 in test [1] and in test [2] was 50 to 100% throughout.
In the case of `O=C(NC1CS(=O)(=O)C1)c1ccc(/C=C/C(c2cc(Cl)c(Cl)c(Cl)c2)C(F)(F)F)cc1Cl` (stereo not drawn) [AC30], the mortality at 50 µg/cm2 in test [1] and in test [2] was 50 to 100% throughout.
As to `COc1cc(/C=C/C(c2cc(Cl)c(F)c(Cl)c2)C(F)(F)F)ccc1C(=O)NC1CSC1` (stereo not drawn) [AC71], the mortality at 50 µg/cm2 in test [1] and in test [2] was 50 to 100% throughout.
Turning to `O=C(CNC(=O)c1ccc(/C=C/C(c2cc(F)c(Cl)c(F)c2)C(F)(F)F)cc1Br)NCC(F)(F)F` (stereo not drawn) [AC102], the mortality at 50 µg/cm2 in test [1] is 0%; in test [2], 50 to 100%.
In the case of `O=C(NCc1ccc(/C=C/C(c2cc(Cl)c(Cl)c(Cl)c2)C(F)(F)F)cc1C(F)(F)F)c1cccnc1` (stereo not drawn) [CC23], the mortality at 50 µg/cm2 in test [1] and in test [2] was 50 to 100% each time.
Take `O=C(C1CC1)N(Cc1ccccn1)Cc1ccc(/C=C/C(c2cc(Cl)c(Cl)c(Cl)c2)C(F)(F)F)cc1C(F)(F)F` (stereo not drawn) [CC29, (E)-N-(pyridin-2-ylmethyl)-N-(4-(4,4,4-trifluoro-3-(3,4,5-trichlorophenyl)but-1-enyl)-2-(trifluoromethyl)benzyl)cyclopropanecarboxamide]: the mortality at 50 µg/cm2 in test [1] and in test [2] was 50 to 100% each time.
As to `O=C(CNC(=O)c1ccc(/C=C/C(c2cc(Cl)cc(Cl)c2)C(F)(F)F)cc1F)NCC(F)(F)F` (stereo not drawn) [AC62], the mortality at 50 µg/cm2 in test [1] and in test [2] was 50 to 100% in each case.
As to `CCNC(=O)NCc1ccc(/C=C/C(c2cc(Cl)c(Cl)c(Cl)c2)C(F)(F)F)c2ccccc12` (stereo not drawn) [CC49, (E)-1-ethyl-3-((4-(4,4,4-trifluoro-3-(3,4,5-trichlorophenyl)but-1-en-1-yl)naphthalen-1-yl)methyl)urea], the mortality at 50 µg/cm2 in test [1] and in test [2] was 0% in each case.
As to `Cc1cc(/C=C/C(c2cc(Cl)cc(Cl)c2)C(F)(F)F)ccc1C(=O)NCc1cnccn1` (stereo not drawn) [AC43], the mortality at 50 µg/cm2 in test [1] and in test [2] was 50 to 100% each time.
In the case of `COc1cc(/C=C/C(c2cc(Cl)c(F)c(Cl)c2)C(F)(F)F)ccc1C(=O)NCc1ccc(Cl)nc1` (stereo not drawn) [AC70], the mortality at 50 µg/cm2 in test [1] and in test [2] was 0% in each case.
As for `CC(=O)N1CCC(NC(=O)c2ccc(/C=C/C(c3cc(Cl)c(Cl)c(Cl)c3)C(F)(F)F)cc2Br)CC1` (stereo not drawn) [AC103, (E)-N-(1-acetylpiperidin-4-yl)-2-bromo-4-(4,4,4-trifluoro-3-(3,4,5-trichlorophenyl)but-1-en-1-yl)benzamide], the mortality at 50 µg/cm2 in test [1] and in test [2] was 50 to 100% in each case.
On to `Cc1cc(/C=C/C(c2cc(Cl)cc(Cl)c2)C(F)(F)F)ccc1C(=O)NCc1cnc(Cl)s1` (stereo not drawn) [AC15], for which the mortality at 50 µg/cm2 in test [1] and in test [2] was 50 to 100% each time.
For `O=[N+]([O-])c1ncn(-c2ccc(/C=C/C(c3cc(Cl)cc(Cl)c3)C(F)(F)F)cc2)n1` (stereo not drawn) [DC22], the mortality at 50 µg/cm2 in test [1] and in test [2] was 0% in each case.
Turning to `O=C(CC(F)(F)F)NC1CCCc2cc(/C=C/C(c3cc(Cl)c(Cl)c(Cl)c3)C(F)(F)F)ccc21` (stereo not drawn) [BC5], the mortality at 50 µg/cm2 in test [1] and in test [2] was 50 to 100% each time.
Regarding `Fc1cc(/C=C/C(c2cc(Cl)cc(Cl)c2)C(F)(F)F)ccc1-n1cncn1` (stereo not drawn) [DC48], the mortality at 50 µg/cm2 in test [1] and in test [2] was 50 to 100% in each case.
Take `Cc1cc(/C=C\C(c2cc(Cl)cc(Cl)c2)C(F)(F)F)ccc1C(=O)NCc1ccc(Cl)nc1` (stereo not drawn) [AC94]: the mortality at 50 µg/cm2 is 0% in test [1] and 0 to 50% in test [2].
Consider `Fc1ccc(C(/C=C/c2ccc(-n3cncn3)cc2)C(F)(F)F)cc1` (stereo not drawn) [DC7], for which the mortality at 50 µg/cm2 in test [1] was 50 to 100%; in test [2] it was 0%.
For the compound `O=C(Cc1ccc(Cl)nc1)NCc1ccc(/C=C/C(c2cc(Cl)c(Cl)c(Cl)c2)C(F)(F)F)cc1Cl` (stereo not drawn) [CC14], the mortality at 50 µg/cm2 in test [1] was 50 to 100%; in test [2], 0%.
Take `NC(=O)c1cc(/C=C/C(c2cc(Cl)cc(Cl)c2)C(F)(F)F)ccc1-n1cncn1` (stereo not drawn) [DC58]: the mortality at 50 µg/cm2 in test [1] and in test [2] was 0% each time.
As to `Cc1cc(/C=C/C(c2cc(Cl)c(Cl)c(Cl)c2)C(F)(F)F)ccc1C(=O)NC(C)(C)c1ccccn1` (stereo not drawn) [AC27], the mortality at 50 µg/cm2 in test [1] and in test [2] was 50 to 100% in each case.
As to `O=C(NCc1ccc(/C=C/C(c2cc(Cl)cc(Cl)c2)C(F)(F)F)cc1Cl)C1CC1` (stereo not drawn) [CC8], the mortality at 50 µg/cm2 in test [1] and in test [2] was 50 to 100% throughout.
`O=C(CNC(=O)c1ccc(/C=C/C(c2cc(Cl)c(F)c(Cl)c2)C(F)(F)F)cc1F)NCC(F)(F)F` (stereo not drawn) [AC68]: the mortality at 50 µg/cm2 in test [1] and in test [2] was 50 to 100% each time.
Consider `Cc1cc(-n2cncn2)ccc1/C=C/C(c1cc(Cl)cc(Cl)c1)C(F)(F)F` (stereo not drawn) [DC65], for which the mortality at 50 µg/cm2 in test [1] is 0%; in test [2], 50 to 100%.
For the compound `O=C(CNC(=O)c1ccc(/C=C/C(c2cc(Cl)c(F)c(Cl)c2)C(F)(F)F)cc1[N+](=O)[O-])NCC(F)(F)F` (stereo not drawn) [AC98], the mortality at 50 µg/cm2 in test [1] and in test [2] was 50 to 100% in each case.
Take `Cc1cc(/C=C/C(c2cc(Cl)c(Cl)c(Cl)c2)C(F)(F)F)ccc1C(=O)NCc1cnc(Cl)s1` (stereo not drawn) [AC26]: the mortality at 50 µg/cm2 in test [1] and in test [2] was 50 to 100% throughout.
Take `CCOC(=O)c1cc(/C=C/C(c2cc(Cl)cc(Cl)c2)C(F)(F)F)ccc1-n1cncn1` (stereo not drawn) [DC60]: the mortality at 50 µg/cm2 in test [1] and in test [2] was 50 to 100% throughout.

For orientation: mortality means the percentage killed.
